Source: US4468399A, “2-[2-(2-Aminoalkyl-4-thiazolylmethylthio)alkyl]-amino-5-substituted-4-pyr imidones” (Eli Lilly and Company, priority 1983, dated 1984)

Tests used:
[1] = system: H2-receptor; conditions: cited from earlier work; for H2-receptor antagonist activity in words: prior art
[2] = target: T1, H2 receptor (Rattus norvegicus, UniProt P25102); assay: H2 receptor blocking activity, histamine-induced relaxation of isolated rat uterine strips; format: cell-based, rat (female albino rats); conditions: antagonist 10^-5 molar, 30 minutes, dissociation constant from dose ratio of histamine ED50; read-out: -logKb (converted)
T1 construct: uterine horns removed therefrom and suspended at ambient temperature in isolated organ baths; from tissue; host or cells: isolated uterine horn strips of estrone-treated female albino rats
Method: The following assay for H2 receptor blocking activity was employed. Female albino rats are treated with estrone 24 hours prior to the initiation of the experiment. The rats are sacrificed and the uterine horns removed therefrom and suspended at ambient temperature in isolated organ baths containing De Jalon's solution. After equilibration, the uterine strips are exposed to 50 millimole aqueous potassium chloride, which produces a sustained contraction. When the uterus is so contracted, histamine produces a dosedependent H2 receptor-mediated relaxation. A control dose-response curve to histamine is constructed on each tissue. Following thorough washout of the histamine after obtaining the control dose-response curve, each antagonist (a compound of this invention) is added for 30 minutes at a concentration of 10^-5 molar. The uterine strips are then contracted with aqueous potassium chloride in the presence of the antagonist and a second dose-response curve to histamine obtained. In the presence of a competitive antagonist, the dose-response curve to histamine is shifted in parallel to the right with no depression of the maximum relative to the control curve. The dose ratio (DR) is calculated for each concentration of antagonist by dividing the ED50 of histamine in the presence of the competitive antagonist by the control ED50 for histamine. The dissociation constant (KB) of the antagonist is calculated from the dose-ratios by the following equation: […]
Cimetidine is included as an internal standard.
In the table, column 1 gives the name of the compound under test and column 2, the -logKb value for that compound.

[3] = system: H2 receptor; assay: H2 receptor blocking activity, isolated bullfrog gastric mucosa, histamine-stimulated acid secretion; format: cell-based, bullfrog (Rana catesbeiana); conditions: inhibition of acid secretion stimulated by 10^-5 M histamine; antagonist in serosal chamber; read-out: ED50 (the source's name)
Method: A second assay for H2 receptor blocking activity employs the isolated bullfrog gastric mucosa--see Warrick and Lin, Communications in Chem. Pathology and Pharmacology, 13, 149 (1976). The assay is carried out as follows: The gastric mucosa of the bullfrog (Rana catesbeiana) is separated from the musculature of the stomach and placed between a pair of Ussing chambers made of lucite. The chambers are filled with frog Ringer solution and acid secretion is stimulated by addition of histamine to the serosal side of the mucosa at a final concentration of 10^-5 M. Acid output is automatically titrated to pH 4.5. After steady response to 10^-5 M of histamine is established, the antagonist (a compound of this invention) is added to the serosal chamber and the maximal inhibition by each concentration of the H2 -antagonist is recorded. From the dose-response curve, the ED50 of the drug is calculated.
In Table 2, column 1 gives the substituent at 6 in the pyrimidone ring, column 2 the "B" group (see formula at the head of the Table), and column 3 the molar ED50.

[4] = system: acid secretion; assay: in vivo antisecretory assay, gastric fistula dogs, histamine-stimulated gastric secretion; conditions: for antisecretory potency relative to cimetidine, iv route: iv infusion over 30 minute period, histamine iv infusion; for recovery of acid secretions from an effective dose: after 3-4 hours
Method: An in vivo assay for the antisecretory action of drugs on acid secretion utilizes gastric fistula dogs with a vagally innervated gastric fistula and vagally denervated Heidenthain pouch. A steady-state gastric secretion is produced by the iv infusion of histamine. The antisecretory drugs under test are given either intravenously by infusion over a 30 minute period or orally 75 min. prior to collection of gastric secretion from the fistula. In this assay, 2-[2-(2-dimethylaminomethyl-4-thiazolylmethylthio)ethyl]amino-5-(3-pyridyl)methyl-4-pyrimidone was 11X cimetidine by the iv route and 14X cimetidine orally. The 6-methyl-2-pyridyl analog was 14.4X cimetidine intravenously.

T1 sequence (P25102 whole entry): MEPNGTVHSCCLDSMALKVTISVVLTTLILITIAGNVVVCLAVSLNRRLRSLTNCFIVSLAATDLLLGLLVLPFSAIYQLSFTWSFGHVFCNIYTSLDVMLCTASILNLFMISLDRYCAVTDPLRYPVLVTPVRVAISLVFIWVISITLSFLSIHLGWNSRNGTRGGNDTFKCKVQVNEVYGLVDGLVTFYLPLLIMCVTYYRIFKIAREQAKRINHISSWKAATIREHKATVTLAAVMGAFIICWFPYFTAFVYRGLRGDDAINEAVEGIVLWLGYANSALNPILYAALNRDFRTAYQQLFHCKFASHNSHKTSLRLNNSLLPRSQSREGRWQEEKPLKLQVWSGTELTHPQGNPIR

Row | SMILES | Kd [2] [nM] | IC50 [3] [nM] | also measured
1 | CNC(=S)NCCCCc1cnc[nH]1 [burimamide] |  |  | H2-receptor antagonist activity in words [1]: powerful H2 -receptor antagonist
2 | Cc1cccc(Cc2c[nH]c(NCCSCc3csc(CN(C)C)n3)nc2=O)n1 [6-methyl-2-pyridyl analog] |  |  | antisecretory potency relative to cimetidine, iv route [4]: 14.4 X cimetidine
3 | COc1cc(Cc2cnc(NCCSCc3csc(CN(C)C)n3)[nH]c2=O)ccn1 [Example 7, 2-[2-(2-dimethylaminomethyl-4-thiazolylmethylthio)ethyl]amino-5-(2-methoxy-4-pyridyl)methyl-4-pyrimidone] |  | 3000 | 
4 | CNC(=NC#N)NCCSCc1csc(NC(=N)N)n1 [2-guanidino-4-[2-(2-cyano-3-methylguanidino)ethylthiomethyl]thiazole] |  |  | H2-receptor antagonist activity in words [1]: greatly increased activity over cimetidine
5 | CN(C)Cc1nc(CSCCNc2ncc(Cc3ccnc(O)c3)c(=O)[nH]2)cs1 [Example 9, 2-[2-(2-dimethylaminomethyl-4-thiazolylmethylthio)ethyl]amino-5-(2-hydroxy-4-pyridyl)methyl-4-pyrimidone] |  | 603 | 
6 | C#CCNC(=C[N+](=O)[O-])NCCSCc1ccc(CN(C)C)o1 [1-nitro-2-(2-propynylamino)-2-(2-[(5-dimethylaminomethyl-2-furyl)methylthio]ethylamino)ethylene] |  |  | activity relative to cimetidine in a standard H2-receptor assay ([1]; U.S. Pat. No. 4,203,909): 7.45 times the activity of cimetidine
7 | Cc1cc(Cc2cnc(NCCSCc3csc(CN(C)C)n3)[nH]c2=O)cnc1C [Example 5, 2-[2-(2-dimethylaminomethyl-4-thiazolylmethylthio)ethyl]amino-5-(5,6-dimethyl-3-pyridyl)methyl-4-pyrimidone] | 3.89 | 2350 | 
8 | CNC(=NCCSCc1nc[nH]c1C)NC#N [cimetidine, N-cyano-N'-methyl-N"-[2-([(5-methyl-1H-imidazol-4-yl)methyl]thio)ethyl]guanidine, reference compound] |  |  | recovery of acid secretions from an effective dose [4]: ~50%

More lines, main results first:

Row | Kd [2] [nM] | IC50 [3] [nM] | SMILES | also measured
9 | 4.37 | 11100 | CN(C)Cc1nc(CSCCNc2nc(=O)c(Cc3ccc4c(c3)OCO4)c[nH]2)cs1 [Example 2, 2-[2-(2-dimethylaminomethyl-4-thiazolylmethylthio)ethyl]amino-5-[5-(1,3-benzodioxoly)]methyl-4-pyrimidone] | 
10 |  | 252 | CN(C)Cc1nc(CSCCNc2ncc(Cc3ccc(O)nc3)c(=O)[nH]2)cs1 [Example 6, 2-[2-(2-dimethylaminomethyl-4-thiazolylmethylthio)ethyl]amino-5-(6-hydroxy-3-pyridyl)methyl-4-pyrimidone] | 
11 | 12.9 | 196 | CN(C)Cc1nc(CSCCNc2ncc(Cc3ccncc3)c(=O)[nH]2)cs1 [Example 11, 2-[2-(2-dimethylaminomethyl-4-thiazolylmethylthio)ethyl]amino-5-(4-pyridyl)methyl-4-pyrimidone] | 
12 | 17.4 | 163 | CN(C)Cc1nc(CSCCNc2ncc(Cc3ccccn3)c(=O)[nH]2)cs1 [Example 10, 2-[2-(2-dimethylaminomethyl-4-thiazolylmethylthio)ethyl]amino-5-(2-pyridyl)methyl-4-pyrimidone] | 
13 |  | 2000 | Cc1nc(NCCSCc2csc(CN(C)C)n2)[nH]c(=O)c1Cc1cccnc1 [Example 8, 2-[2-(2-dimethylaminomethyl-4-thiazolylmethylthio)ethyl]amino-5-(3-pyridyl)methyl-6-methyl-4-pyrimidone] | 
14 | 1.1 | 115 | CN(C)Cc1nc(CSCCNc2ncc(Cc3cccnc3)c(=O)[nH]2)cs1 [Example 1, 2-[2-(2-dimethylaminomethyl-4-thiazolylmethylthio)ethyl]amino-5-(3-pyridyl)methyl-4-pyrimidone] | recovery of acid secretions from an effective dose [4]: about 25%; antisecretory potency relative to cimetidine, iv route [4]: 11 X cimetidine; antisecretory potency relative to cimetidine, orally ([4]; orally 75 min. prior to collection of gastric secretion): 14 X cimetidine
15 | 11.2 | 1350 | Cc1ccc(Cc2cnc(NCCSCc3csc(CN(C)C)n3)[nH]c2=O)cn1 [Example 3, 2-[2-(2-dimethylaminomethyl-4-thiazolylmethylthio)ethyl]amino-5-(6-methyl-3-pyridyl)methyl-4-pyrimidone] | 
16 | 60.3 | 12600 | COc1ccc(Cc2cnc(NCCSCc3csc(CN(C)C)n3)[nH]c2=O)cn1 [Example 4, 2-[2-(2-dimethylaminomethyl-4-thiazolylmethylthio)ethyl]amino-5-(6-methoxy-3-pyridyl)methyl-4-pyrimidone] | 
